One may read the kinetic solubility as the concentration staying in solution when a stock, usually in DMSO, is diluted into the medium.

Values after ≈ are worked out from the molar mass of the structure shown.

The source of these data is PubChem BioAssay AID1996.

The conditions of the data set: buffer; pH 7.4; 200.0 µM.
`O=C1N=C(N2CCCCC2)S/C1=C\c1ccccc1F` had a kinetic solubility of 4.7 µg/mL (≈ 16.2 µM).

In the case of `N#CSC(c1ccccc1)c1nc2ccccc2[nH]c1=O` (stereo not drawn), the kinetic solubility turned out to be 26.9 µg/mL (≈ 91.7 µM).

Regarding `O=C(CCNC(=O)c1ccco1)Nc1ccc(C(F)(F)F)cc1`, the solubility (kinetic) turned out to be 23.4 µg/mL (≈ 71.7 µM).

`Cc1ccc(-c2c(=O)n(O)c3ccccc3[n+]2[O-])cc1` showed a kinetic solubility of 40.1 µg/mL (≈ 149 µM).

`Cc1cccc(NC(=O)Nc2ccc(Cl)c(Cl)c2)n1` showed a kinetic solubility of under 0.2 µg/mL.

With `CC(C)n1c(CN(C)Cc2ccccc2)nc2c1c(=O)n(C)c(=O)n2C`, the solubility (kinetic) turned out to be 23.8 µg/mL (≈ 67 µM).

With `O=C(CCc1ccccc1)Nc1cc2c3c(c1)CC(=O)N3CCC2`, the kinetic solubility is over 48.1 µg/mL.

The compound `CCOC(=O)c1c(NC(=S)N2CCOCC2)sc(C)c1C` gave a kinetic solubility of under 0.4 µg/mL.

In the case of `Cc1ccc(C(=O)O)c(C(=O)Nc2nc3ccccc3s2)c1`, the kinetic solubility was over 46.9 µg/mL.

Turning to `Cc1cc(OCC(=O)NC2CCN(C)CC2)ccc1[N+](=O)[O-]`, the kinetic solubility is over 46.1 µg/mL.

The compound `CCOC(=O)c1c(C)[nH]c(C(=O)OCc2ccc(C)cc2)c1C` had a solubility (kinetic) of 3.2 µg/mL (≈ 10.1 µM).

For `Cc1ccc(NC(=O)C/C(N)=N/O)cc1Cl`, the solubility (kinetic) is over 36.3 µg/mL.

For the compound `Cc1nc([N+](=O)[O-])cn1CCCCN1C(=O)c2ccccc2C1=O`, the solubility (kinetic) was found to be 8.3 µg/mL (≈ 25.3 µM).

For `O=C(NCc1ccccc1)c1cc[n+](Cc2ccccc2)cc1.[Cl-]`, the kinetic solubility was 49.7 µg/mL.

As to `COc1ccc(CCN2C(=O)CC(C(N)=O)SC2=Nc2ccccc2)cc1` (stereo not drawn), the solubility (kinetic) came to 44.5 µg/mL (≈ 116 µM).

In turn, `COc1ccc(F)cc1S(=O)(=O)NCC1CCCO1` (stereo not drawn) came in with a solubility (kinetic) of over 43.4 µg/mL.

For `CC(CC(=O)NCc1ccc(F)cc1)c1ccccc1` (stereo not drawn), the kinetic solubility is over 40.7 µg/mL.

The compound `O=C(CNC(=O)c1ccco1)Nc1ccncc1` displayed a kinetic solubility of 36.4 µg/mL (≈ 148 µM).

Regarding `COc1cc(CNC(=O)C2CC2)ccc1OCc1ccccc1`, the solubility (kinetic) amounted to 8.4 µg/mL (≈ 27 µM). This solubility kinetic lies about 4.3-fold lower than the previous one.

`CCN(CC(=O)NCc1ccc(F)cc1)S(=O)(=O)c1ccc(Cl)s1` showed a solubility (kinetic) of 10.5 µg/mL (≈ 26.9 µM).

In the case of `CCOc1c(O)ccc(/C=C2\SC(=S)NC2=O)c1[N+](=O)[O-]`, the solubility (kinetic) is 6.8 µg/mL (≈ 20.8 µM). This solubility kinetic is about 1.5-fold lower than that of the compound before.

The compound `CC(=O)N1CCN(c2ccc(NC(=O)c3ccccc3)cc2)CC1` showed a kinetic solubility of 40.5 µg/mL (≈ 125 µM).

In turn, `CN(c1ccc(F)cc1)S(=O)(=O)c1ccc(Cl)c(C(=O)NCc2ccco2)c1` displayed a solubility (kinetic) of 34.9 µg/mL (≈ 82.5 µM).

In the case of `CCOc1cc(N2CCOCC2)c(OCC)cc1NC(=O)COC(=O)c1ccc([N+](=O)[O-])o1`, the kinetic solubility is over 69.5 µg/mL.

Compound `CCCCn1c(=O)c(C(=O)Nc2ccc(C)cn2)c(O)c2ccccc21` registered a solubility (kinetic) of under 0.3 µg/mL.

`Cc1csc2c(=O)sc(NC(=O)c3ccc(F)cc3)nc12` came in with a solubility (kinetic) of under 0.3 µg/mL.

`CN(C)c1ccc(/C=C/C#N)cc1` yielded a kinetic solubility of 5.4 µg/mL (≈ 31.4 µM).

Turning to `O=C(c1ccccc1)c1c[nH]c2ccccc12`, the kinetic solubility was found to be 1.9 µg/mL (≈ 8.59 µM).

The compound `COC(=O)c1cccc(NC(=O)c2cccc([N+](=O)[O-])c2)c1` came in with a kinetic solubility of 3.8 µg/mL (≈ 12.7 µM).

In turn, `CCCOc1ccc(N2C(=O)CC(NCC(=O)OCC)C2=O)cc1` (stereo not drawn) came in with a kinetic solubility of over 50.2 µg/mL.

Regarding `Cc1ccc(Nc2nc(C)cc(C)c2C(N)=O)c(C)c1`, the solubility (kinetic) is over 40.4 µg/mL.

As to `N#C/C(=C\c1cccnc1)c1nc2ccccc2[nH]1`, the solubility (kinetic) was 27.4 µg/mL (≈ 111 µM).

The compound `Cc1ccc(N/C=C/C(=O)c2ccco2)c(O)c1` came in with a kinetic solubility of 1.4 µg/mL (≈ 5.76 µM).

`CC(C)(C)C(=O)OC/C(N)=N/OC(=O)c1ccccc1` returned a solubility (kinetic) of over 41.7 µg/mL.

The compound `COc1ccc(O)c(CN2CCCC(C(=O)c3ccccc3SC)C2)c1` (stereo not drawn) had a kinetic solubility of 17.7 µg/mL (≈ 47.6 µM).

The compound `COCCn1cnc2c1c(=O)n(CC(=O)NCC(F)(F)F)c(=O)n2Cc1ccccc1` yielded a solubility (kinetic) of 39.9 µg/mL (≈ 90.8 µM).

`Cc1ccc(S(=O)(=O)N(C)CC(=O)N2CC(C)OC(C)C2)cc1` (stereo not drawn) gave a solubility (kinetic) of over 51.1 µg/mL.

Take `Cc1cccnc1Nc1nc(-c2ccccc2)cs1`: the kinetic solubility worked out at 7.6 µg/mL (≈ 28.4 µM).

Consider `CC(=O)c1ccc(-c2ccc(C(=O)Nc3nc(-c4ccccn4)cs3)o2)cc1`, for which the kinetic solubility stood at 4.9 µg/mL (≈ 12.6 µM).

As for `O=C(O)CCNC(=O)/C(=C/c1ccco1)NC(=O)c1ccco1`, the kinetic solubility was over 47.7 µg/mL.

In the case of `COc1ccc(C(=O)OCC(=O)c2ccc3c(c2)NC(=O)CO3)cc1S(=O)(=O)N1CCOCC1`, the kinetic solubility was 11.3 µg/mL (≈ 23 µM).

Compound `CCc1ccc(S(=O)(=O)Nc2ccc(Br)cn2)cc1` showed a kinetic solubility of 18.1 µg/mL (≈ 53 µM). This solubility kinetic is about 1.6-fold higher than that of the compound before.

Consider `CC(C)CCNc1nc(N)c([N+](=O)[O-])c(NC2CCCCC2)n1`, for which the solubility (kinetic) was under 0.1 µg/mL.

Consider `CC(=O)N1CCc2cc(S(=O)(=O)N3CCCCC3C)ccc21` (stereo not drawn), for which the solubility (kinetic) was determined as 9.4 µg/mL (≈ 29.2 µM).

Consider `COc1cc(C(=S)N2CCCC2)ccc1OCc1ccccc1`, for which the kinetic solubility turned out to be 1.5 µg/mL (≈ 4.58 µM).

Turning to `CCOc1ccc2nc(NC(=O)C3CCCO3)sc2c1` (stereo not drawn), the solubility (kinetic) was over 43.9 µg/mL.

`Cc1ccc(Nc2ccc(C(=O)O)cc2[N+](=O)[O-])cc1` had a kinetic solubility of over 40.8 µg/mL.

`O=C(CSc1ccccc1)NCc1ccccc1` came in with a solubility (kinetic) of 22.6 µg/mL (≈ 87.8 µM).

As for `CC(=O)c1cccc(NC(=O)CC(C)n2ccnc2)c1` (stereo not drawn), the kinetic solubility was over 40.7 µg/mL.

Compound `CC(=O)NCCc1nc2cc(NS(=O)(=O)c3ccccc3)ccc2n1C` came in with a solubility (kinetic) of over 55.9 µg/mL.

Turning to `COC(=O)c1nc2ccccn2c1F`, the kinetic solubility was over 29.1 µg/mL.

`COc1cccc(NC(=O)NCc2ccccc2Cl)c1` had a solubility (kinetic) of 1 µg/mL (≈ 3.44 µM).

As for `CCOc1ccc(-n2c(-c3cccs3)nc3ccccc3c2=O)cc1`, the kinetic solubility turned out to be 0.5 µg/mL (≈ 1.44 µM).

Compound `Cc1ccc([N+](=O)[O-])cc1N(CC(=O)NC1CCCC1)S(C)(=O)=O` displayed a kinetic solubility of over 53.3 µg/mL.

With `COc1cccc(OCCNc2ccc([N+](=O)[O-])cn2)c1`, the solubility (kinetic) was found to be 4.7 µg/mL (≈ 16.2 µM).

The compound `O=C(NCCC(=O)N1CCCCC1)c1ccc(Br)cc1` came in with a solubility (kinetic) of over 50.9 µg/mL.

For the compound `O=C(C1CC(=O)N(c2ccccc2)C1)N1CCCCCC1` (stereo not drawn), the solubility (kinetic) was over 43 µg/mL.

For the compound `CN1c2ccccc2Sc2cc(N)ccc21`, the kinetic solubility was found to be 25.6 µg/mL (≈ 112 µM).

`CCN(C(=O)c1ccc(Cl)c([N+](=O)[O-])c1)c1ccccc1` showed a solubility (kinetic) of 35.8 µg/mL (≈ 117 µM).

`O=C(c1cc(Br)c[nH]1)N1CCSCC1` displayed a kinetic solubility of 29.6 µg/mL (≈ 108 µM). The solubility kinetic values of the last two compounds are within 1.5-fold of each other.

`N#Cc1ccc(-c2nc3cc(Cl)ccc3c(=O)n2O)cc1` had a solubility (kinetic) of 44 µg/mL (≈ 148 µM).

Take `COc1ccc(S(=O)(=O)NC(C)C(=O)N2CCCCCC2)cc1` (stereo not drawn): the kinetic solubility was over 51.1 µg/mL.

In the case of `Cc1cc(C)c2nc(NC(=O)c3ccc([N+](=O)[O-])o3)sc2c1`, the kinetic solubility was under 0.2 µg/mL.

`CC(C)Sc1sc(C(=O)O)c(-c2ccc(Cl)cc2)c1C#N` displayed a kinetic solubility of over 50.7 µg/mL.

For `O=C(O)c1ccccc1-c1ccccc1C(=O)Nc1cccc(Br)c1`, the solubility (kinetic) was 53.6 µg/mL (≈ 135 µM).

As for `CC1Cc2ccccc2N1C(=O)Cn1cnc2ccccc21` (stereo not drawn), the solubility (kinetic) stood at 42.3 µg/mL (≈ 145 µM).

For the compound `COC(=O)c1ccc(CNC(=O)C23CC4CC(CC(C4)C2)C3)cc1`, the kinetic solubility was 6.2 µg/mL (≈ 18.9 µM). This solubility kinetic lies about 6.8-fold lower than the previous one.

In turn, `CC(C)c1ccc(NC(=S)NC2CC3C=CC2C3)cc1` (stereo not drawn) registered a solubility (kinetic) of 1.4 µg/mL (≈ 4.89 µM).

`Nc1ncnc2c1ncn2CCc1ccccc1` returned a solubility (kinetic) of over 35.9 µg/mL.

Compound `Cc1ccc(CNS(=O)(=O)c2cccc3nsnc23)cc1` registered a kinetic solubility of over 47.9 µg/mL.

The compound `FC(F)(F)c1ccc(Cl)c(-n2c(-c3ccco3)n[nH]c2=S)c1` came in with a solubility (kinetic) of over 51.9 µg/mL.

In the case of `Cc1cc(C)c(NC(=S)NC(CO)(CO)CO)c(C)c1`, the kinetic solubility was over 44.8 µg/mL.

Turning to `O=C(NCC1CCCO1)c1cnc(Cl)c(Cl)c1` (stereo not drawn), the kinetic solubility is over 41.3 µg/mL.
